# Data published in US10294202B2, “Pyrrolidinones as herbicides” (FMC Corporation, priority 2013, dated 2019).
# Experiments:
# barnyardgrass = test: Test F flood (paddy) test; format: in vivo, Echinochloa crus-galli; conditions: 21 d, scale 0-100
# Summary of the method: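 In this paddy assay, 2.0–2.5-leaf plants grown in sterilized Tama silt loam (2.6% organic matter) at 30/27 °C with 16-h photoperiod receive compound via the 3-cm flood water. Control is rated visually at 21 d from 0 (none) to 100 (complete), versus untreated pots.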
# corn = test: Test E preemergence herbicide test; format: in vivo, Zea mays; set-up: key: 0 = no effect, 100 = complete control
# Excerpt: Seeds of plant species selected from corn (Zea mays), soybean (Glycine max), velvetleaf (Abutilon theophrasti), lambsquarters (Chenopodium album), wild poinsettia (Euphorbia heterophylla), pigweed, palmer (palmer pigweed, Amaranthus palmeri), waterhemp (common waterhemp, Amaranthus rudis), surinam grass (Brachiaria decumbens), crabgrass, large (large crabgrass, Digitaria sanguinalis), crabgrass, Brazil (Brazilian crabgrass, Digitaria horizontalis), panicum, fall (fall panicum, Panicum dichotomiflorum), foxtail, giant (giant foxtail, Setaria faberii), foxtail, green (green foxtail, Setaria viridis), goosegrass (Eleusine indica), johnsongrass (Sorghum halepense), ragweed (common ragweed, Ambrosia elatior), barnyardgrass (Echinochloa crus-galli), sandbur (southern sandbur, Cenchrus echinatus), arrowleaf […] rhombifolia), ryegrass, Italian (Italian ryegrass, Lolium multiflorum), dayflower, VA (Virginia dayflower, Commelina virginica), field bindweed (Convolvulus arvensis), morningglory (Ipomoea coccinea), nightshade (eastern black nightshade, Solanum ptycanthum), kochia (Kochia scoparia), nutsedge, yellow (yellow nutsedge, Cyperus esculentus), cocklebur (common cocklebur, Xanthium strumarium), smartweed (ladysthumb smartweed, Polygonum Persicaria) and beggarticks (hairy beggarticks, Bidens pilosa), were planted into a silt loam soil and treated preemergence with test chemicals formulated in a non-phytotoxic solvent mixture which included a surfactant. Treated plants and controls were maintained in a greenhouse for 21 days, after which time all species were compared to controls and visually evaluated. Plant response ratings, summarized in Table E, are based on a scale of 0 to 100 where 0 is no effect and 100 is complete control. A dash (-) response means no test result.
# cocklebur = test: Test C pre-/postemergence herbicide test; format: in vivo, Xanthium strumarium
# Excerpt: Seeds of plant species selected from blackgrass (Alopecurus myosuroides), ryegrass, Italian (Italian ryegrass, Lolium multiflorum), wheat (winter wheat, Triticum aestivum), galium (catchweed bedstraw, Galium aparine), corn (Zea mays), crabgrass, large (large crabgrass, Digitaria sanguinalis), foxtail, giant (giant foxtail, Setaria faberii), johnsongrass (Sorghum halepense), lambsquarters (Chenopodium album), morningglory (Ipomoea coccinea), nutsedge, yellow (yellow nutsedge, Cyperus esculentus), pigweed (Amaranthus retroflexus), ragweed (common ragweed, Ambrosia elatior), soybean (Glycine max), barnyardgrass (Echinochloa crus-galli), oilseed rape (Brassica napus), waterhemp (common waterhemp, Amaranthus rudis), kochia (Kochia scoparia), oat, wild (wild oat, Avena fatua), surinam grass (Brachiaria decumbens), foxtail, green (green foxtail, Setaria viridis), goosegrass (Eleusine indica), bromegrass, downy (downy bromegrass, Bromus tectorum), nightshade (eastern black nightshade, Solanum ptycanthum), cocklebur (common cocklebur, Xanthium strumarium), cupgrass, woolly (woolly cupgrass, Eriochloa villosa), bermudagrass (Cynodon dactylon), sunflower, (common oilseed sunflower, Helianthus annuus), Russian thistle (Salsola kali) and velvetleaf (Abutilon theophrasti) were planted into a blend of loam soil and sand and treated preemergence with test chemicals formulated in a non-phytotoxic solvent mixture which included a surfactant. At the same time, plants selected from these crop and weed species and also barley (winter barley, Hordeum vulgare), […]), chickweed (common chickweed, Stellaria media), deadnettle (henbit deadnettle, Lamium amplexicaule), and canarygrass (littleseed canarygrass, Phalaris minor) were planted in pots containing Redi-Earth® planting medium (Scotts Company, 14111 Scottslawn Road, Marysville, Ohio 43041) comprising spaghnum peat moss, vermiculite, wetting agent and starter nutrients and treated with postemergence applications of test chemicals formulated in the same manner. Plants ranged in height from 2 to 18 cm (1- to 4-leaf stage) for postemergence treatments. Treated plants and controls were maintained in a greenhouse for 13 to 15 days, after which time all species were compared to controls and visually evaluated. Plant response ratings, summarized in Table C, are based on a scale of 0 to 100 where 0 is no effect and 100 is complete control. A dash (-) response means no test result.
# [1] = Preemergence, 62 g ai/ha, scale 0 to 100
# [2] = Preemergence, 125 g ai/ha, scale 0 to 100 (0 no effect, 100 complete control)
# [3] = Preemergence, 31 g ai/ha, scale 0 to 100 (0 no effect, 100 complete control)
# [4] = Preemergence, 250 g ai/ha, scale 0 to 100 (0 no effect, 100 complete control)
# [5] = Postemergence, 31 g ai/ha, scale 0 (no effect) to 100 (complete control)
# [6] = Postemergence, 62 g ai/ha, scale 0 to 100 (0 no effect, 100 complete control)
# [7] = Postemergence, 125 g ai/ha, scale 0 to 100 (0 no effect, 100 complete control)
# [8] = Postemergence, 250 g ai/ha, scale 0 to 100 (0 no effect, 100 complete control)
SMILES,"Plant response rating, Barnyardgrass (barnyardgrass; 125 g ai/ha)","Plant response rating, Barnyardgrass (barnyardgrass; 250 g ai/ha)","Plant response rating, Barnyardgrass (barnyardgrass; 500 g ai/ha)","Plant response rating, Corn (corn; 31 g ai/ha)","Plant response rating, Corn (corn; 62 g ai/ha)","Plant response rating, Corn (corn; 125 g ai/ha)","Plant response rating, Corn (corn; 250 g ai/ha)","Plant response rating, Cocklebur (cocklebur; [1])","Plant response rating, Cocklebur (cocklebur; [2])",Cocklebur plant response rating (cocklebur; [3]),"Plant response rating, Cocklebur (cocklebur; [5])","Plant response rating, Cocklebur (cocklebur; [6])","Plant response rating, Cocklebur (cocklebur; [7])",also measured
O=C1NCC(c2cccc(C(F)F)c2)C1C(=O)Nc1ccccc1F (racemic) [Compound 210],75,100,100,,,,,,,,,,,
"O=C1NCC(c2ccc(C(F)(F)F)cc2)C1C(=O)Nc1cccc(F)c1F (stereo not shown) [Compound 80, N-(2,3-difluorophenyl)-2-oxo-4-[4-(trifluoromethyl)phenyl]-3-pyrrolidinecarboxamide]",,,,0,0,0,30,,,,,,,"Plant response rating, Corn (corn; 16 g ai/ha): 0"
O=C1NCC(c2cccc(OC(F)(F)F)c2)C1C(=O)Nc1ccccc1F (stereo not shown) [Compound 69],,,,,,,,,,,,,,"Cocklebur plant response rating (cocklebur; Preemergence, 31 g ai/ha, scale 0 to 100, 0 is no effect and 100 is complete control): 0; Plant response rating (scale of 0 to 100), Cocklebur (cocklebur; Preemergence, 250 g ai/ha): 0"
CN1CC(c2ccc(F)c(F)c2)C(C(=O)Nc2cccc(F)c2F)C1=O (stereo not shown) [Compound 303],100,100,100,,,,,,,,,,,"Plant response rating, Barnyardgrass (barnyardgrass; 62 g ai/ha): 100"
O=C1NCC(c2ccc(F)c(F)c2)C1C(=O)Nc1cccc(F)c1F (racemic) [Compound 101],85,85,90,,,,,,,,,,,"Plant response rating, Barnyardgrass (barnyardgrass; 64 g ai/ha): 60"
"O=C1NCCC1C(=O)N(c1ccc(F)c(F)c1)c1ccccc1F (stereo not shown) [Compound 5, N-(3,4-difluorophenyl)-N-(2-fluorophenyl)-2-oxo-3-pyrrolidinecarboxamide]",55,65,75,,,,,0,0,0,,,,"Plant response rating, Barnyardgrass (barnyardgrass; 1000 g ai/ha): 90; Plant response rating, Barnyardgrass (barnyardgrass; 2000 g ai/ha): 90; Plant response rating, Cocklebur (cocklebur; [4]): 0"
"O=C1NCC(c2ccc(F)c(F)c2)C1C(=O)Nc1cccc(F)c1F (stereo not shown) [Compound 17, N-(2,3-difluorophenyl)-4-(3,4-difluorophenyl)-2-oxo-3-pyrrolidinecarboxamide]",90,90,90,0,0,0,0,5,5,0,0,0,0,"Plant response rating, Corn (corn; 16 g ai/ha): 0; Plant response rating, Barnyardgrass (barnyardgrass; 1000 g ai/ha): 95; Plant response rating, Barnyardgrass (barnyardgrass; 2000 g ai/ha): 100; Plant response rating, Cocklebur (cocklebur; [8]): 0; Plant response rating, Cocklebur (cocklebur; [4]): 5"
"O=C1NC[C@H](c2cccc(C(F)(F)F)c2)[C@H]1C(=O)Nc1ccccc1F [Compound 204, (3R,4S)—N-(2-fluorophenyl)-2-oxo-4-[3-(trifluoromethyl)phenyl]-3-pyrrolidinecarboxamide]",100,100,100,0,0,0,40,,,,,,,
O=C1NCC(c2ccc(OC(F)F)cc2)C1C(=O)Nc1cccc(F)c1F (racemic) [Compound 350],,,,0,0,0,0,,,,,,,
O=C1NCC(c2ccc(Cl)c(Cl)c2)C1C(=O)Nc1ccccc1F (racemic) [Compound 14],,,,0,0,0,0,0,,0,,,,"Plant response rating, Corn (corn; 16 g ai/ha): 0; Plant response rating, Cocklebur (cocklebur; [4]): 0"
O=C1NCC(c2ccc(C(F)(F)F)cc2)C1C(=O)Nc1cccc(F)c1F (racemic) [Compound 202],,,,0,0,40,60,,,,,,,
O=C1NCC(c2cc(F)c(F)cc2F)C1C(=O)Nc1cccc(F)c1F (stereo not shown) [Compound 50],,,,,,,,,,,5,5,5,"Plant response rating, Cocklebur (cocklebur; [8]): 5"
O=C1NCC(c2ccc(Cl)c(F)c2)C1C(=O)Nc1cccc(F)c1F (stereo not shown) [Compound 52],,,,,,,,0,0,0,5,5,5,"Plant response rating, Cocklebur (cocklebur; [8]): 5"
O=C1NCC(c2cc(F)c(F)c(F)c2)C1C(=O)Nc1cccc(F)c1F (stereo not shown) [Compound 48],,,,,,,,0,5,0,5,10,10,"Plant response rating, Cocklebur (cocklebur; Postemergence, 16 g ai/ha, scale 0 to 100 (0 no effect, 100 complete control)): 0; Plant response rating, Cocklebur (cocklebur; Preemergence, 16 g ai/ha, scale 0 to 100): 0"
O=C1NC[C@H](c2cccc(C(F)(F)F)c2)[C@H]1C(=O)Nc1cccc(F)c1F [Compound 206],100,100,100,0,50,40,70,,,,,,,"Plant response rating, Barnyardgrass (barnyardgrass; 64 g ai/ha): 90"
O=C1NCC(c2ccc(F)c(Cl)c2)C1C(=O)Nc1ccccc1F (stereo not shown) [Compound 60],,,,,,,,0,0,,0,0,0,
